Values of other authors as cited in PubChem BioAssay AID1259409 (Chemical Carcinogenesis Research Information System (CCRIS), 2018).

System: rodent chemically induced tumor inhibition, incidence and multiplicity
Test: CCRIS tumor inhibitor studies
Conditions: Dose [Inhibitor]: 0, Route [Inhibitor]: ORAL

COc1ccc2c(c1)c(CC(=O)O)c(C)n2C(=O)c1ccc(Cl)cc1
tumour outcome (control, treated, inhibition, significance) (Carcinogen: N-BUTYL-N-(4-HYDROXYBUTYL)NITROSAMINE, 3817-11-6, 20 PPM IN DRINKING WATER FOR 40 WK BEGINNING POST CARCINOGEN TREATMENT (STUDY DURATION: 44 WK), Species: RAT, Strain/Sex: F344/MALE, Target Tissue: Type of Lesion: URINARY BLADDER: PAPILLOMA, Dose [Carcinogen]: 0.05% IN DRINKING WATER FOR 4 WK, Promoter: BUTYLATED HYDROXYANISOLE, 25013-16-5): 14/15 (93%), 4/15 (27%), 71%, p<0.01 | tumour outcome (control, treated, inhibition, significance) (Carcinogen: N-BUTYL-N-(4-HYDROXYBUTYL)NITROSAMINE, 3817-11-6, 20 PPM IN DRINKING WATER FOR 40 WK BEGINNING POST CARCINOGEN TREATMENT (STUDY DURATION: 44 WK), Species: RAT, Strain/Sex: F344/MALE, Target Tissue: Type of Lesion: URINARY BLADDER: PAPILLOMA, Dose [Carcinogen]: 0.05% IN DRINKING WATER FOR 4 WK, Promoter: SODIUM L-ASCORBATE, 134-03-2): 15/15 (100%), 9/15 (60%), 40%, p<0.01 | tumour outcome (control, treated, inhibition, significance) (Carcinogen: N-BUTYL-N-(4-HYDROXYBUTYL)NITROSAMINE, 3817-11-6, 20 PPM IN DRINKING WATER FOR 40 WK BEGINNING POST CARCINOGEN TREATMENT (STUDY DURATION: 44 WK), Species: RAT, Strain/Sex: F344/MALE, Target Tissue: Type of Lesion: URINARY BLADDER: TRANSITIONAL CELL CARCINOMA, Dose [Carcinogen]: 0.05% IN DRINKING WATER FOR 4 WK, Promoter: BUTYLATED HYDROXYANISOLE, 25013-16-5): 10/15 (67%), 1/15 (7%), 90%, p<0.01 | tumour outcome (control, treated, inhibition, significance) (Carcinogen: N-BUTYL-N-(4-HYDROXYBUTYL)NITROSAMINE, 3817-11-6, 20 PPM IN DRINKING WATER FOR 40 WK BEGINNING POST CARCINOGEN TREATMENT (STUDY DURATION: 44 WK), Species: RAT, Strain/Sex: F344/MALE, Target Tissue: Type of Lesion: URINARY BLADDER: TRANSITIONAL CELL CARCINOMA, Dose [Carcinogen]: 0.05% IN DRINKING WATER FOR 4 WK, Promoter: SODIUM L-ASCORBATE, 134-03-2): 15/15 (100%), 5/15 (33%), 67%, p<0.01 | tumour outcome (control, treated, inhibition, significance) (Carcinogen: N-BUTYL-N-(4-HYDROXYBUTYL)NITROSAMINE, 53609-64-6, 7.5 MG/KG OF DIET STARTING 1 WK PRIOR TO CARCINOGEN DOSE FROM 49 D OF AGE AND CONTINUING FOR DURATION OF STUDY (STUDY, Species: MOUSE, Strain/Sex: BDF/MALE, Target Tissue: Type of Lesion: BLADDER: CARCINOMA, Dose [Carcinogen]: 7.5 MG IN 0.1 ML OF ETHANOL:WATER (20:80) 1/WK FOR 8 WK, Promoter: NONE USED): 14%, 4%, 71%, p<0.05 | tumour outcome (control, treated, inhibition, significance) (Carcinogen: N-BUTYL-N-(4-HYDROXYBUTYL)NITROSAMINE, 53609-64-6, 7.5 MG/KG OF DIET STARTING 1 WK PRIOR TO CARCINOGEN DOSE FROM 49 D OF AGE AND CONTINUING FOR DURATION OF STUDY (STUDY, Species: MOUSE, Strain/Sex: BDF/MALE, Target Tissue: Type of Lesion: BLADDER: PAPILLOMA, Dose [Carcinogen]: 7.5 MG IN 0.1 ML OF ETHANOL:WATER (20:80) 1/WK FOR 8 WK, Promoter: NONE USED): 13%, 1%, 92%, p<0.01 | tumour outcome (control, treated, inhibition, significance) (Carcinogen: N-BUTYL-N-(4-HYDROXYBUTYL)NITROSAMINE, 53609-64-6, 15 MG/KG OF DIET STARTING 1 WK PRIOR TO CARCINOGEN DOSE AT 49 D OF AGE AND CONTINUING FOR DURATION OF STUDY (STUDY DU, Species: MOUSE, Strain/Sex: BDF/MALE, Target Tissue: Type of Lesion: BLADDER: CARCINOMA, Dose [Carcinogen]: 7.5 MG IN 0.1 ML OF ETHANOL:WATER (20:80) 1/WK FOR 8 WK, Promoter: NONE USED): 14%, 0%, 100%, p<0.01 | tumour outcome (control, treated, inhibition, significance) (Carcinogen: N-BUTYL-N-(4-HYDROXYBUTYL)NITROSAMINE, 53609-64-6, 15 MG/KG OF DIET STARTING 1 WK PRIOR TO CARCINOGEN DOSE AT 49 D OF AGE AND CONTINUING FOR DURATION OF STUDY (STUDY DU, Species: MOUSE, Strain/Sex: BDF/MALE, Target Tissue: Type of Lesion: BLADDER: PAPILLOMA, Dose [Carcinogen]: 7.5 MG IN 0.1 ML OF ETHANOL:WATER (20:80) 1/WK FOR 8 WK, Promoter: NONE USED): 13%, 0%, 100%, p<0.01 | tumour outcome (control, treated, inhibition, significance) (Carcinogen: N-ETHYL-N-NITROSOUREA, 759-73-9, 20 MG/L IN DRINKING WATER FOR 12 MO ADMINISTERED TO OFFSPRING OF CARCINOGEN-TREATED MOTHERS (STUDY DURATION: 12 MO), Species: RAT, Strain/Sex: ALBINO/MALE, FEMALE, Target Tissue: Type of Lesion: BRAIN: TUMOR, Dose [Carcinogen]: 75 MG/KG BW ADMINISTERED INTRAPERITONEALLY TO MOTHERS 21 D POST CONCEPTION, Promoter: NONE USED): 36/42 (86%), 14/25 (56%), 35%, p<0.05 | tumour outcome (control, treated, inhibition, significance) (Carcinogen: N-ETHYL-N-NITROSOUREA, 759-73-9, 20 MG/L IN DRINKING WATER FOR 12 MO ADMINISTERED TO OFFSPRING OF CARCINOGEN-TREATED MOTHERS (STUDY DURATION: 12 MO), Species: RAT, Strain/Sex: ALBINO/MALE, FEMALE, Target Tissue: Type of Lesion: KIDNEY: TUMOR, Dose [Carcinogen]: 75 MG/KG BW ADMINISTERED INTRAPERITONEALLY TO MOTHERS 21 D POST CONCEPTION, Promoter: NONE USED): 19/42 (45%), 8/25 (32%), 29%, not significant
